Test results taken from paper PMC8286840, “Identifying SARS-CoV-2 antiviral compounds by screening for small molecule inhibitors of Nsp3 papain-like protease” (Biochemical Journal, 2021).
Counter-ions that a name gives are not always drawn. Like-named read-outs stand apart in the source and are kept apart here.

Assays:
[1] = target: T1, SARS-CoV-2 PLpro (nsp3 1564–1878) (Severe acute respiratory syndrome coronavirus 2, UniProt P0DTD1); test: biochemical; parameters: FRET-quenched peptide (Pro3) cleavage by PLpro, 10 min pre-incubation, slope over 20 min, normalised to no-compound control; conditions: low concentration screen, read-out: % of control remaining
[2] = target: T1, SARS-CoV-2 PLpro (nsp3 1564–1878); test: biochemical; parameters: FRET-quenched peptide (Pro3) cleavage by PLpro, 10 min pre-incubation, slope over 20 min, normalised to no-compound control; conditions: high concentration screen, read-out: % of control remaining

Structure (SMILES): CC(=O)c1c(C)c2cnc(Nc3ccc(N4CCNCC4)cn3)nc2n(C2CCCC2)c1=O [PD 0332991 (Palbociclib) Isethionate]
- remaining activity at 1.25 µM ([1]; Well no.=4882): 101%
- remaining activity at 3.75 µM ([2]; Well no.=4882): 101%

Structure (SMILES): C[C@@H](O)[C@H](N)c1nnc([C@H](CCC(N)=O)NC(=O)N[C@@H](CO)C(=O)O)o1 [PD-1-IN-17]
- remaining activity at 1.25 µM ([1]; Well no.=8741): 102%
- remaining activity at 3.75 µM ([2]; Well no.=8741): 106%

Structure (SMILES): COc1ccc(C2(O)OC(=O)C(c3ccc4c(c3)OCO4)=C2Cc2cc(OC)c(OC)c(OC)c2)cc1 (centres unmarked) [PD-156707]
- remaining activity at 1.25 µM ([1]; Well no.=5693): 101%
- remaining activity at 3.75 µM ([2]; Well no.=5693): 104%

Structure (SMILES): CCN(CC)CCCCNc1ncc2cc(-c3c(Cl)cccc3Cl)c(NC(=O)NC(C)(C)C)nc2n1 [PD-161570]
- remaining activity at 1.25 µM ([1]; Well no.=5413): 99.1%
- remaining activity at 3.75 µM ([2]; Well no.=5413): 97.7%

Structure (SMILES): COc1cc(OC)cc(-c2cc3cnc(N)nc3nc2NC(=O)NC(C)(C)C)c1 [PD-166866]
- remaining activity at 1.25 µM ([1]; Well no.=5912): 96.4%
- remaining activity at 3.75 µM ([2]; Well no.=5912): 96.7%

Structure (SMILES): Cc1cc(Nc2ncc3cc(-c4c(Cl)cccc4Cl)c(=O)n(C)c3n2)ccc1F [PD-180970]
- remaining activity at 1.25 µM ([1]; Well no.=5604): 100%
- remaining activity at 3.75 µM ([2]; Well no.=5604): 96.4%

Structure (SMILES): Cc1cc(Cn2c(=O)n(Cc3cnc(C)s3)c(=O)c3cc(S(=O)(=O)NC4(C)CC4)ccc32)n(C)n1 [PDD 00017273]
- remaining activity at 1.25 µM ([1]; Well no.=8182): 105%
- remaining activity at 3.75 µM ([2]; Well no.=8182): 98.5%

Structure (SMILES): COc1cc2nccc(Oc3ccc(NC(=S)NC(=O)c4ccccc4C)cc3)c2cc1OC [PDGF RTK Inhibitor]
- remaining activity at 1.25 µM ([1]; Well no.=2509): 104%
- remaining activity at 3.75 µM ([2]; Well no.=2509): 101%

Structure (SMILES): COc1cc2ncnc(N3CCN(C(=O)Nc4ccc(Oc5ccccc5)cc4)CC3)c2cc1OC [PDGF Receptor Tyrosine Kinase Inhibitor III]
- remaining activity at 1.25 µM ([1]; Well no.=2505): 104%
- remaining activity at 3.75 µM ([2]; Well no.=2505): 106%

Structure (SMILES): CCCC(=O)Oc1ccc2[nH]c(C(=O)c3cc4ccccc4[nH]3)cc2c1 [PDGF Receptor Tyrosine Kinase Inhibitor II]
- remaining activity at 1.25 µM ([1]; Well no.=2503): 101%
- remaining activity at 3.75 µM ([2]; Well no.=2503): 99.2%

Structure (SMILES): CCN(CC)Cc1ccc(C(=O)N(CCc2ccccc2OC)[C@@H]2CCNC2)cc1 [PF429242 (dihydrochloride)]
- remaining activity at 1.25 µM ([1]; Well no.=6996): 102%
- remaining activity at 3.75 µM ([2]; Well no.=6996): 97.5%

Structure (SMILES): CN(c1ccccc1CNc1nc(Nc2ccc3c(c2)CC(=O)N3)ncc1C(F)(F)F)S(C)(=O)=O [PF431396]
- remaining activity at 1.25 µM ([1]; Well no.=3033): 99.3%
- remaining activity at 3.75 µM ([2]; Well no.=3033): 100%

Structure (SMILES): OCCn1cc(-c2cnc3nnn(Cc4ccc5ncccc5c4)c3n2)cn1 [PF04217903]
- remaining activity at 1.25 µM ([1]; Well no.=2937): 99.1%
- remaining activity at 3.75 µM ([2]; Well no.=2937): 98.4%

Structure (SMILES): CC(C)C[C@H]1C(=O)O[C@H](Cc2ccccc2)C(=O)N(C)[C@@H](CC(C)C)C(=O)O[C@H](C)C(=O)N(C)[C@@H](CC(C)C)C(=O)O[C@H](Cc2ccccc2)C(=O)N(C)[C@@H](CC(C)C)C(=O)O[C@H](C)C(=O)N1C [PF 1022A]
- remaining activity at 1.25 µM ([1]; Well no.=7942): 101%
- remaining activity at 3.75 µM ([2]; Well no.=7942): 114%

Structure (SMILES): CS(=O)(=O)c1cccc(CNc2nc(Nc3ccc4c(c3)CCC(=O)N4)ncc2C(F)(F)F)c1 [PF 573228]
- remaining activity at 1.25 µM ([1]; Well no.=4712): 96.1%
- remaining activity at 3.75 µM ([2]; Well no.=4712): 101%

Structure (SMILES): O=C(Nc1cccnc1)N1CCC(Cc2cccc(Oc3ccc(C(F)(F)F)cn3)c2)CC1 [PF-3845]
- remaining activity at 1.25 µM ([1]; Well no.=4643): 96.6%
- remaining activity at 3.75 µM ([2]; Well no.=4643): 90.4%

Structure (SMILES): O=C(CCN1CCN(C(=O)OCc2cc(Cl)cc(Cl)c2)CC1)c1ccc2[nH]c(=O)oc2c1 [PF-8380]
- remaining activity at 1.25 µM ([1]; Well no.=7798): 104%
- remaining activity at 3.75 µM ([2]; Well no.=7798): 98.3%

Structure (SMILES): Cn1cc(-c2[nH]c3cc(NC(=O)[C@H](N)C4CCCCC4)cc4c3c2C=NNC4=O)cn1 [PF-477736]
- remaining activity at 1.25 µM ([1]; Well no.=4836): 99.5%
- remaining activity at 3.75 µM ([2]; Well no.=4836): 101%

Structure (SMILES): CC(F)(F)CN1CCOc2c(nn(-c3ccccc3Cl)c2-c2ccc(Cl)cc2)C1=O [PF-514273]
- remaining activity at 1.25 µM ([1]; Well no.=5700): 97.7%
- remaining activity at 3.75 µM ([2]; Well no.=5700): 96.2%

Structure (SMILES): CN(c1ncccc1CNc1nc(Nc2ccc3c(c2)CC(=O)N3)ncc1C(F)(F)F)S(C)(=O)=O [PF-562271]
- remaining activity at 1.25 µM ([1]; Well no.=2699): 97.1%
- remaining activity at 3.75 µM ([2]; Well no.=2699): 100%

Structure (SMILES): Cn1cc(-c2ccncc2)c(-c2ccc(OCc3ccc4ccccc4n3)cc2)n1 [PF-2545920]
- remaining activity at 1.25 µM ([1]; Well no.=8150): 101%
- remaining activity at 3.75 µM ([2]; Well no.=8150): 95.7%

Structure (SMILES): COCc1nnc(N2CC(Oc3ccc(F)cc3Cl)C2)n1-c1ccc(OC)nc1 [PF-3274167]
- remaining activity at 1.25 µM ([1]; Well no.=7285): 99.6%
- remaining activity at 3.75 µM ([2]; Well no.=7285): 97.3%

Structure (SMILES): Cc1cn2cc(C(=O)N(C)CCO)cc(N[C@@H]3CCOc4cccc(C)c43)c2n1 [PF-03716556]
- remaining activity at 1.25 µM ([1]; Well no.=6006): 97.5%
- remaining activity at 3.75 µM ([2]; Well no.=6006): 96%

Structure (SMILES): CC(=O)NCC(=O)N1[C@@H]2CC[C@H]1c1ccc(Nc3ncc(C(F)(F)F)c(NC4CCC4)n3)cc12 [PF-03814735]
- remaining activity at 1.25 µM ([1]; Well no.=4693): 102%
- remaining activity at 3.75 µM ([2]; Well no.=4693): 105%

Structure (SMILES): N#Cc1ccc(N2N=C3c4ccc(C(=O)O)cc4CC[C@@H]3[C@@H]2C2CCCC2)cc1Cl [PF-03882845]
- remaining activity at 1.25 µM ([1]; Well no.=6063): 96.4%
- remaining activity at 3.75 µM ([2]; Well no.=6063): 94.4%

Structure (SMILES): O=C(NCC(=O)N1CC[C@H](N[C@H]2CC[C@@](O)(c3ccc(-c4ncccn4)cn3)CC2)C1)c1cccc(C(F)(F)F)c1 [PF-4136309]
- remaining activity at 1.25 µM ([1]; Well no.=7097): 98.3%
- remaining activity at 1.25 µM ([1]; Well no.=8085): 98%
- remaining activity at 3.75 µM ([2]; Well no.=7097): 98.1%
- remaining activity at 3.75 µM ([2]; Well no.=8085): 89%

Structure (SMILES): COc1ccc2cc(OCC3(C(=O)O)CN(C(=O)c4ccc(F)cc4)C3)ccc2c1 [PF-04418948]
- remaining activity at 1.25 µM ([1]; Well no.=7197): 89.6%
- remaining activity at 3.75 µM ([2]; Well no.=7197): 87.9%

Structure (SMILES): CN1CC[C@@H](NC(=O)Nc2ccc(C#N)cc2)C[C@@H]1c1nc2ccccc2[nH]1 [PF-04449913 maleate salt]
- remaining activity at 1.25 µM ([1]; Well no.=5703): 104%
- remaining activity at 3.75 µM ([2]; Well no.=5703): 99.8%

Structure (SMILES): CC(C)CNCc1ccc(-c2ccccc2S(=O)(=O)N2CCCC2)cc1 [PF-04455242 hydrochloride]
- remaining activity at 1.25 µM ([1]; Well no.=5775): 106%
- remaining activity at 3.75 µM ([2]; Well no.=5775): 107%

Structure (SMILES): CCc1cncnc1N1CCN(Cc2nc3ccc(C(F)(F)F)cc3[nH]2)CC1 [PF-4708671]
- remaining activity at 1.25 µM ([1]; Well no.=4804): 97%
- remaining activity at 3.75 µM ([2]; Well no.=4804): 94.4%

Structure (SMILES): CC1(C)CC(=O)c2c(C(F)(F)F)nn(-c3ccc(C(N)=O)c(N[C@H]4CC[C@H](OC(=O)CN)CC4)c3)c2C1 [PF-04929113 (SNX-5422)]
- remaining activity at 1.25 µM ([1]; Well no.=4637): 101%
- remaining activity at 3.75 µM ([2]; Well no.=4637): 105%

Structure (SMILES): Cc1ccc(-c2c(-c3nn(C)c4ncnc(N5CC[C@H](N6CCCCC6)C5)c34)cnn2C)cc1 [PF-4981517]
- remaining activity at 1.25 µM ([1]; Well no.=4875): 99.5%
- remaining activity at 3.75 µM ([2]; Well no.=4875): 93.8%

Structure (SMILES): Cc1cnc(-c2cc(N3CCN(C(=O)CCS(C)(=O)=O)CC3)ncc2Cl)c(C)c1 [PF-5274857 hydrochloride]
- remaining activity at 1.25 µM ([1]; Well no.=5701): 102%
- remaining activity at 3.75 µM ([2]; Well no.=5701): 103%
